From patent US10945971B2, “Sphingosine kinase type 1 inhibitors and uses thereof” (Enzo Therapeutics, Inc., priority 2008, dated 2021)

How the values were obtained:
[1] = tested on: LN229 cells; test: Cell proliferation (WST-1), LN229 cells; type: cell-based, human
Protocol: (§1) U373-MG and LN229 human glioblastoma cells (ATTC, Manassas, Va.) were cultured in DMEM supplemented with 5% FCS. Primary human non-established glioblastoma GBM6 cells were kindly provided by Dr. C. David James and were passaged as tumors in nude mice and subcultured for 1 week following isolation from tumors in media containing 2% FCS to prevent growth of contaminating rodent fibroblasts and then cultured in 5% FCS as described (Yacoub et al., Mol Cancer Ther 7:314-329, 2008). LN229 cells were transfected with H2B-EGFP plasmid and stable colonies were isolated following selection with 1 mg/ml of G418. LN229-H2B-EGFP cells were passaged as tumors as described above.
(§2) Cells were plated at 10,000 cells/well in 48-well plates and allowed to attach for 24 h. Cell proliferation was measured at the indicated times with WST-1 and absorbance was measured in a plate reader at 450 nm with background subtraction at 630 nm. Cell death was detected by trypan blue exclusion assays in which the percent of blue dye incorporating cells were determined using a light microscope and a hemacytometer as described (Yacoub et al. Mol Cancer Ther 7:314-329, 2008). Apoptotic cell death was measured by staining cell nuclei with the Hoechst dye bisbenzimide and apoptotic cells were identified by condensed, fragmented nuclear regions as described previously (Sankala et al. Cancer Res 67:10466-10474, 2007). A minimum of 300 cells was scored.

[2] = tested on: JNK; test: JNK pathway and p38 MAPK activation, LN229 cells; type: cell-based, human
Protocol: (§3) Cells were scraped in buffer containing 20 mM Tris-HCl, pH 7.5, 50 mM NaCl, 50 mM NaF, 30 mM Na4P2O7, 20 mM 2-glycerophosphate, 1 mM Na3VO4, 5 mM EDTA, 2 mM EGTA, 0.5% SDS and protease inhibitor cocktail (1:200 dilution) and probe-sonicated. Equal amounts of protein determined with bicinchoninic acid (Pierce, Rockford, Ill.), were resolved by SDS-PAGE and transferred to nitrocellulose membranes. Blots were blocked with 5% non-fat dry milk in Tris-buffered saline containing 0.1% […] (TBST) for 1 h at room temperature, and then incubated with primary antibodies (1:3,000 in 1% BSA) overnight, followed by the appropriate HRP-conjugated secondary antibodies (1:40,000 in 1% BSA). Immunocomplexes were visualized by enhanced chemiluminescence (Pierce).

[3] = tested on: LN229 xenograft tumors; test: Subcutaneous LN229 xenograft tumors in nu/nu mice; type: in vivo; conditions: 10 mg/kg i.p. every other day
Protocol: Adult male NCI nu/nu mice were purchased from NCI (Frederick, Md.). All animal studies were conducted in the Animal Research Core Facility at VCU School of Medicine in accordance with the institutional guidelines. LN229 cells (1×10^6) were injected in the flanks (4 sites per mouse). Palpable tumors appeared in about one week. Five days later, when tumors reached 3-4 mm in diameter, mice were randomly separated into 2 groups and injected i.p. with saline or SK1-I (10 mg/kg) every other day. Tumor measurements were made with calipers, and tumor volume was calculated using the formula: (π×[length in millimeters]×[width in millimeters]2)/6. At the end of the experiment, the animals were euthanized and the tumors removed, fixed in formalin and embedded in paraffin, or frozen in liquid nitrogen.
Paraffin sections were dewaxed, rehydrated, incubated with proteinase K before permeabilization, and then stained with hematoxylin-eosin. Frozen sections were dried, fixed in formalin, and stained with antibodies against mouse CD-31 (BD Pharmingen, San Jose, Calif.), or rabbit antibodies against phospho-Akt (Ser473) (Cell Signaling) followed by immunohistochemistry with Alexa-488-conjugated species-specific secondary antibodies. Cryosections were air dried, permeabilized with 0.5% Triton X-100, and stained with a fluorescein TUNEL labeling kit (Roche Applied Sciences, Indianapolis, Ind.) followed by counterstaining with Hoechst. Sections were also stained with goat anti-human VEGF affinity-purified antibody (R&D), visualized with anti-goat horseradish peroxidase-diaminobenzidene staining kit (R&D) and counterstained with hematoxylin.

[4] = tested on: LN229 cells; test: Colony formation (clonogenic) assay, LN229 cells; type: cell-based, human
Protocol: Cells were plated at a density of 1000 cells/well in a 12-well plate in DMEM containing 5% serum. After 8 h, SK1-I was added and 2 h later, the media was changed. After 10 days, cells were fixed in 4% paraformaldehyde and stained with crystal violet (0.05%). Colonies larger then 0.5 mm in diameter were counted.

[5] = tested on: GBM6; test: In vitro invasion, GBM6 cells; type: cell-based, human
Protocol: (§4) Boyden chamber invasion assays were carried out essentially as described (Shida et al. Cancer Res 68:6569-6577, 2008).

[6] = tested on: ERK1/2; test: Western blotting of ERK1/2 phosphorylation, LN229 cells; type: cell-based, human; conditions: LN229, serum, LPA, EGF, short-term
Protocol: as §3

[7] = tested on: ERK1/2; test: Western blotting of pERK1/2, GBM6 cells; type: cell-based, human
Protocol: as §3

[8] = tested on: S1P, sphingosine and ceramide levels; test: Sphingolipid metabolite levels by LC-ESI-MS/MS after SK1-I; type: cell-based
Source text: Lipids were extracted and phosphorylated and unphosphorylated sphingoid bases, individual ceramide acyl chain species, as well as SK1-I and its metabolites were quantified by liquid chromatography, electrospray ionization-tandem mass spectrometry (LC-ESI-MS/MS) as described previously (Merrill et al. Methods 36:207-224, 2005).

[9] = tested on: ERK1/2; test: Western blotting of ERK1/2 activation, U373 cells; type: cell-based, human
Protocol: as §3

[10] = tested on: AML xenograft tumors; conditions: U.S. Ser. No. 12/387,228; cited from earlier work
[11] = tested on: GBM6 glioblastoma cells; test: Cell proliferation (WST-1), primary non-established GBM6 cells; type: cell-based, human
Protocol: as §1
as §2, with “A minimum of 300 cells was scored.” left out

[12] = tested on: EGFR, Gab1; test: EGF-induced tyrosine phosphorylation of EGFR and Gab1; type: cell-based
Protocol: as §3

[13] = tested on: LN229 cells; test: Boyden chamber chemotaxis, LN229 cells; type: cell-based, human
Protocol: as §4

[14] = U.S. Ser. No. 12/387,228; cited from earlier work
[15] = tested on: Akt; test: Western blotting of Akt phosphorylation, U373 cells; type: cell-based, human
Protocol: as §3

CCCCCc1ccc(/C=C/[C@H](O)[C@@H](CO)NC)cc1 [SK1-I, (2R,3S,4E)-N-methyl-5-(4′-pentylphenyl)-2-aminopent-4-ene-1,3-diol]
cell growth ([1]; LN229, 10 μM, absence of serum): strongly inhibited growth
cell numbers ([1]; LN229, 10 μM, presence of serum, within 2-4 days): severe reductions in cell numbers
concentration at which a significant growth inhibitory effect was observed ([1]; LN229 cells): 3 µM
activation of JNK ([2]; LN229): delayed activation of JNK
phosphorylation of c-Jun (Ser63/73) and ATF-2 (Thr71) ([2]; LN229, after addition of SK1-I): enhanced phosphorylation
p38 MAPK ([2]; LN229, data not shown): without affecting
TUNEL positive apoptotic tumor cells [3]: increased numbers
VEGF expression in tumors [3]: greatly reduced
blood vessel density (CD31 staining) [3]: reductions
phosphorylated Akt immunostaining in tumors [3]: markedly decreased
vascularization in tumors (hematoxilin and eosin) [3]: decreased vascularization
reduction of tumor weight ([3]; after 43 days, vs vehicle): ~4 fold
tumor volume ([3]; vs control, single factor ANOVA): significantly smaller tumors
long-term survival in clonogenic assays [4]: markedly suppressed
serum- and EGF-induced invasion [5]: suppressed
stimulated ERK1/2 phosphorylation at Thr202/Tyr204 [6]: did not significantly affect
pERK1/2 levels [7]: without affecting
ceramide levels, particularly C16-ceramide ([8]; after 24 h of treatment): increased markedly
S1P levels ([8]; within 20 min after addition): significant reduction
ceramide levels ([8]; within 1 h after addition): without major changes
decrease in S1P levels ([8]; within 1 h after addition): 70%
sphingosine levels ([8]; within 1 h after addition): increase
EGF- and serum-induced ERK1/2 activation [9]: did not reduce
tumor growth [10]: inhibited growth
cell growth ([11]; GBM6, 10 μM, presence of serum): markedly reduced growth
lowest concentration with significant growth inhibition ([11]; GBM6, absence of serum): 1 µM
EGF-induced tyrosine phosphorylation of EGFR or of Gab1 [12]: did not affect
chemotaxis toward lysophosphatidic acid (LPA) [13]: drastically inhibited
chemotaxis toward serum and EGF [13]: significantly inhibited
water solubility [14]: water-soluble
basal Akt phosphorylation at Thr308 and Ser473 ([15]; U373): reduced
time to significant inhibitory effect on Akt phosphorylation ([15]; U373): ≤ 20 min
duration of inhibitory effect on Akt phosphorylation ([15]; U373, data not shown): at least 24 hours
total Akt levels ([15]; after treatment with SK1-I): no significant reductions
